Literature values in US8636973B2, “Method of producing pharmacologically pure crystals” (Biosyn Arzneimittel GmbH, priority 2010, dated 2014).

Legend:
[1] = Janitzki, solubility studies
[2] = 14° C.

SMILES: O.O.O.O.O.O.O.O.O=[Se]([O-])[O-].[Na+].[Na+] [Na2SeO3×8 H2O, Na2SeO3×8H2O]
- temperature at which the form is stable / exists [1]: up to −8.7 °C

SMILES: O=[Se]=O [SeO2, selenium dioxide]
- solubility [2]: 0.384 kg/l H2O
